≈ marks a conversion by molar mass, not a printed value. Read-outs that look alike come from different tables or passages of the source.
Tests used:
P. falciparum = experiment: Growth inhibition against P. falciparum; assay type: cell-based; conditions: for IC50: Plasmodium falciparum
P. falciparum DXR = biological target: T1, P. falciparum DXR (Plasmodium falciparum, UniProt Q8IKG4); experiment: Inhibition of P. falciparum DXR enzyme; assay type: biochemical; conditions: for Pf DXR (% Residue): percent remaining enzyme activity at 100 μM compound
T1 sequence (Q8IKG4 73-488): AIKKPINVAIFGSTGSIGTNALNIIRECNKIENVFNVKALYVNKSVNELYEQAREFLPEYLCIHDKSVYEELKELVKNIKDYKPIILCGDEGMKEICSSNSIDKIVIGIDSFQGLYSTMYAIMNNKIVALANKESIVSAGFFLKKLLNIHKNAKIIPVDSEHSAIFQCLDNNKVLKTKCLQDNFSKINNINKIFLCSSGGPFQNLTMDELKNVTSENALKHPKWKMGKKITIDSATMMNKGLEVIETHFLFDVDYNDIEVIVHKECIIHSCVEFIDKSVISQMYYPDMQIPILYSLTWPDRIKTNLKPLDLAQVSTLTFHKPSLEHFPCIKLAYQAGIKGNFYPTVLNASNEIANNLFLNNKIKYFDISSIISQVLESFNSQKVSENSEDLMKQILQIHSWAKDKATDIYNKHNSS

[1] = system: P. falciparum had1 mutant strain; assay type: cell-based; conditions: in words
Mtb = Mtb growth inhibition (MIC99) in 7H9 and GAST-Fe media; assay type: cell-based, M. tuberculosis; conditions: Mycobacterium tuberculosis
Protocol: Selected analogs were tested for the growth inhibition against P. falciparum and Mtb in both rich media (7H9) and minimal media (GAST-Fe) following reported procedures.

Mtb DXR = Mtb DXR (Mycobacterium tuberculosis, UniProt P9WNS1); experiment: Inhibition of Mtb DXR enzyme; assay type: biochemical, M. tuberculosis; conditions: percent remaining enzyme activity at 100 μM compound
Protocol: Phosphonic acid salts and prodrugs were evaluated as inhibitors of DXR from Mtb and P. falciparum and the results are shown in Table 6. Initially, the percent remaining enzyme activity was studied using a treatment of each compound at a single concentration of 100 μM. […] In general, the compounds display greater inhibition of DXR from P. falciparum compared with activity against the Mtb homolog.

HepG2 cells = experiment: HepG2 cell inhibition (cytotoxicity) assay; assay type: cell-based; conditions: Homo sapiens, HepG2; Table 6, cytotoxicity; read-out: HepG2 IC50
Protocol: For cytotoxicity assays, HepG2 cells (ATCC HB-8065) were grown in DMEM supplemented with 4 mM L-glutamine (Gibco #11966-025) with either 4.5 g/L D-glucose or 1.8 g/L galactose as carbon source. Cells were trypsinized, resuspended in the respective medium (DMEM/glutamine/glucose or DMEM/glutamine/galactose) to 4×10^5 cells/mL and 50 μL/well transferred to flat-bottom white opaque tissue culture plates (Falcon #353296) containing 50 μL/well of the respective medium with test compound. Compound concentrations were two-fold dilutions ranging from 50 μM to 0.049 μM as well as the drug-free DMSO-only control. All concentrations were tested in duplicate for each carbon source. After 24 h incubation at 5% CO2, 37° C., 10 μL/well of Celltiter-Glo reagent (Promega #G9241) was added and luminescence recorded after 20 min incubation in the dark.

[2] = Table 3, diethyl phosphonate analogs
[3] = Table 4, growth inhibition, read-out: Pf IC50
[4] = Table 2, phosphonic acid salts, read-out: Pf DXR IC50
[5] = Table 3, diethyl phosphonate analogs, read-out: P.f. IC50
[6] = Table 6, growth inhibition, read-out: P.f. IC50
[7] = minimal media (GAST-Fe), read-out: Mtb MIC99 Gast/Fe
[8] = rich media (7H9), read-out: Mtb MIC99 7H9

Sequence of Mtb DXR (P9WNS1 whole entry): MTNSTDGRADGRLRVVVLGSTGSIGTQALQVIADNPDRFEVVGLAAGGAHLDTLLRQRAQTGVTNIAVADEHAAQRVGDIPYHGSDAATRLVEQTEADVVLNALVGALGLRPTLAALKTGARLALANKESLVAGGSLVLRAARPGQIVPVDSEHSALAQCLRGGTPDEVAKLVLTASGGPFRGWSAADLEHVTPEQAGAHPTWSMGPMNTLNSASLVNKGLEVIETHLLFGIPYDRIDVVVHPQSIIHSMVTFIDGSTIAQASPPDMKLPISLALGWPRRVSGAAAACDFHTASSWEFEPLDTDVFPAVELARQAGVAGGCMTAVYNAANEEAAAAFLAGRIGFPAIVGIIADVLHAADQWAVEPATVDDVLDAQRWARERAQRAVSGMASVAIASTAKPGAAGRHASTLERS

| SMILES | IC50 (P. falciparum; [3]) | IC50 (P. falciparum; [6]) | MIC99 (Mtb; [8]) | further results |
| --- | --- | --- | --- | --- |
| CCOP(=O)(/C=C/CN(O)C=O)OCC [Compound 11a, Diethyl [(1E)-3-(N-hydroxyformamido)prop-1-en-1-yl]phosphonate] | – | – | – | P.f. IC50 (P. falciparum; [2]): >100 µg/mL |
| CCOP(=O)(/C=C/CN(O)C(=O)C(F)(F)F)OCC [Compound 11b, Diethyl [(1E)-3-(2,2,2-trifluoro-N-hydroxyacetamido)prop-1-en-1-yl]phosphonate] | – | – | – | P.f. IC50 (P. falciparum; [2]): >100 µg/mL |
| CCOP(=O)(/C=C/CN(O)C(=O)OC)OCC [Compound 11c, Methyl N-[(2E)-3-(diethoxyphosphoryl)prop-2-en-1-yl]-N-hydroxycarbamate] | – | – | – | P.f. IC50 (P. falciparum; [2]): >100 µg/mL |
| O=C(N(O)C/C=C/P(=O)([O-])O)C(F)(F)F.[Na+] [Compound 12b, Sodium hydrogen [(1E)-3-(2,2,2-trifluoro-N-hydroxyacetamido)prop-1-en-1-yl]phosphonate] | 113 µM | – | – | Pf DXR (% Residue) (P. falciparum DXR): (36.96) % |
| COC(=O)N(O)C/C=C/P(=O)(O)O [Compound 12c, Diammonium [(1E)-3-[hydroxy(methoxycarbonyl)amino]prop-1-en-1-yl]phosphonate] | – | – | – | IC50 (P. falciparum DXR; [4]): 14.5 µM; IC50 (P. falciparum; read-out: Pf IC50): 28.6 µM |
| CCOP(=O)(/C=C/CN(OC(C)c1ccccc1)C(C)=O)OCC (centres unmarked) [Compound 15d, Diethyl [(1E)-3-[N-(1-phenylethoxy)acetamido]prop-1-en-1-yl]phosphonate] | – | – | – | IC50 (P. falciparum; [5]): 23.5 µg/mL |
| CCOP(=O)(/C=C/CN(OCc1ccc(C(C)C)cc1)C(C)=O)OCC [Compound 15e, Diethyl [(1E)-3-(N-{[4-(propan-2-yl)phenyl]methoxy}acetamido)prop-1-en-1-yl]phosphonate] | – | – | – | IC50 (P. falciparum; [5]): 21.1 µg/mL |
| CCOP(=O)(/C=C/CN(OCc1ccc2ccccc2c1)C(C)=O)OCC [Compound 15f, Diethyl [(1E)-3-{N-[(naphthalen-2-yl)methoxy]acetamido}prop-1-en-1-yl]phosphonate] | – | – | – | IC50 (P. falciparum; [5]): 29.6 µg/mL |
| CCOP(=O)(/C=C/CN(OCc1ccc(-c2ccccc2)cc1)C(C)=O)OCC [Compound 15g, Diethyl [(1E)-3-{N-[(4-phenylphenyl)methoxy]acetamido}prop-1-en-1-yl]phosphonate] | – | – | – | IC50 (P. falciparum; [5]): 13.7 µg/mL |
| CC(=O)N(C/C=C/P(=O)(O)O)OC(C)c1ccccc1 (centres unmarked) [Compound 16d, Sodium hydrogen [(1E)-3-[N-(1-phenylethoxy)acetamido]prop-1-en-1-yl]phosphonate] | 1.2 µM | – | – | IC50 (P. falciparum DXR; [4]): 2.54 µM |
| CC(=O)N(C/C=C/P(=O)([O-])O)OCc1ccc(C(C)C)cc1.[Na+] [Compound 16e, Sodium hydrogen [(1E)-3-(N-{[4-(propan-2-yl)phenyl]methoxy}acetamido)prop-1-en-1-yl]phosphonate] | 1.1 µM | – | – | IC50 (P. falciparum DXR; [4]): 2.11 µM; resistance of had1 parasites compared with wild-type [1]: more resistant |
| CC(=O)N(C/C=C/P(=O)([O-])O)OCc1ccc2ccccc2c1.[Na+] [Compound 16f, Sodium hydrogen [(1E)-3-{N-[(naphthalen-2-yl)methoxy]acetamido}prop-1-en-1-yl]phosphonate] | 26 µM | – | – | Pf DXR (% Residue) (P. falciparum DXR): (25) % |
| CC(=O)N(C/C=C/P(=O)(O)O)OCc1ccc(-c2ccccc2)cc1 [Compound 16g, Sodium hydrogen [(1E)-3-{N-[(4-phenylphenyl)methoxy]acetamido}prop-1-en-1-yl]phosphonate] | 2.3 µM | – | – | IC50 (P. falciparum DXR; [4]): 4.53 µM |
| CC(C)(C)C(=O)OCOP(=O)(/C=C/CN(O)C(=O)C(F)(F)F)OCOC(=O)C(C)(C)C [Compound 18b, [({[(2,2-dimethylpropanoyl)oxy]methoxy}[(1E)-3-(2,2,2-trifluoro-N-hydroxyacetamido)prop-1-en-1-yl]phosphoryl)oxy]methyl 2,2-dimethylpropanoate] | 14.2 µM | – | – | – |
| COC(=O)N(O)C/C=C/P(=O)(OCOC(=O)C(C)(C)C)OCOC(=O)C(C)(C)C [Compound 18c, [({[(2,2-dimethylpropanoyl)oxy]methoxy}[(1E)-3-[hydroxy(methoxycarbonyl)amino]prop-1-en-1-yl]phosphoryl)oxy]methyl 2,2-dimethylpropanoate] | 23.7 µM | – | – | – |
| CC(=O)N(C/C=C/P(=O)(OCOC(=O)C(C)(C)C)OCOC(=O)C(C)(C)C)OCc1ccc(C(C)C)cc1 [Compound 19e, [({[(2,2-dimethylpropanoyl)oxy]methoxy}[(1E)-3-(N-{[4-(propan-2-yl)phenyl]methoxy}acetamido)prop-1-en-1-yl]phosphoryl)oxy]methyl 2,2-dimethylpropanoate] | 55.1 µM | – | – | – |
| CC(=O)N(C/C=C/P(=O)(OCOC(=O)C(C)(C)C)OCOC(=O)C(C)(C)C)OCc1ccc2ccccc2c1 [Compound 19f, [({[(2,2-dimethylpropanoyl)oxy]methoxy}[(1E)-3-{N-[(naphthalen-2-yl)methoxy]acetamido}prop-1-en-1-yl]phosphoryl)oxy]methyl 2,2-dimethylpropanoate] | 49.9 µM | – | – | – |
| CC(=O)N(C/C=C/P(=O)(OCOC(=O)C(C)(C)C)OCOC(=O)C(C)(C)C)OCc1ccc(-c2ccccc2)cc1 [Compound 19g, [({[(2,2-dimethylpropanoyl)oxy]methoxy}[(1E)-3-{N-[(4-phenylphenyl)methoxy]acetamido}prop-1-en-1-yl]phosphoryl)oxy]methyl 2,2-dimethylpropanoate] | 43.2 µM | – | – | – |
| CCOP(=O)(/C=C/CN(O)C(=O)c1ccccc1)OCC [Compound 31a, Diethyl [(1E)-3-(N-hydroxy-1-phenylformamido)prop-1-en-1-yl]phosphonate] | – | > 100 µg/mL | > 100 µg/mL | MIC99 (Mtb; [7]): > 100 µg/mL |
| CCOP(=O)(/C=C/CN(O)C(=O)Cc1ccccc1)OCC [Compound 31b, Diethyl [(1E)-3-(N-hydroxy-2-phenylacetamido)prop-1-en-1-yl]phosphonate] | – | 110 µg/mL | > 100 µg/mL | – |
| CCOP(=O)(/C=C/CN(O)C(=O)CCc1ccccc1)OCC [Compound 31c, Diethyl [(1E)-3-(N-hydroxy-3-phenylpropanamido)prop-1-en-1-yl]phosphonate] | – | > 100 µg/mL | > 100 µg/mL | MIC99 (Mtb; [7]): > 100 µg/mL |
| CCOP(=O)(/C=C/CN(O)C(=O)CCCc1ccccc1)OCC [Compound 31d, Diethyl [(1E)-3-(N-hydroxy-4-phenylbutanamido)prop-1-en-1-yl]phosphonate] | – | 11.1 µg/mL | > 100 µg/mL | MIC99 (Mtb; [7]): > 100 µg/mL |
| O=C(Cc1ccccc1)N(O)C/C=C/P(=O)([O-])O.[Na+] [Compound 32b, Sodium hydrogen [(1E)-3-(N-hydroxy-2-phenylacetamido)prop-1-en-1-yl]phosphonate] | – | 0.137 µg/mL | > 100 µg/mL | IC50 (P. falciparum DXR; Table 6, N-acyl analogs, read-out: Pf Dxr IC50): 0.17 µM; Mtb Dxr (% Residue) (Mtb DXR): (33.6) % |
| CC(C)(C)C(=O)OCOP(=O)(/C=C/CN(O)C(=O)c1ccccc1)OCOC(=O)C(C)(C)C [Compound 33a, [({[(2,2-dimethylpropanoyl)oxy]methoxy}[(1E)-3-(N-hydroxy-1-phenylformamido)prop-1-en-1-yl]phosphoryl)oxy]methyl 2,2-dimethylpropanoate] | – | 0.097 µg/mL | 50 µg/mL (≈ 103 µM) | resistance of had1 parasites compared with wild-type [1]: more resistant; IC50 (HepG2 cells): > 50 µM |
| CC(C)(C)C(=O)OCOP(=O)(/C=C/CN(O)C(=O)Cc1ccccc1)OCOC(=O)C(C)(C)C [Compound 33b, [({[(2,2-dimethylpropanoyl)oxy]methoxy}[(1E)-3-(N-hydroxy-2-phenylacetamido)prop-1-en-1-yl]phosphoryl)oxy]methyl 2,2-dimethylpropanoate] | – | 0.152 µg/mL | 100 µg/mL (≈ 200 µM) | MIC99 (Mtb; [7]): 74 µg/mL (≈ 148 µM) |
| CC(C)(C)C(=O)OCOP(=O)(/C=C/CN(O)C(=O)CCCc1ccccc1)OCOC(=O)C(C)(C)C [Compound 33d, [({[(2,2-dimethylpropanoyl)oxy]methoxy}[(1E)-3-(N-hydroxy-4-phenylbutanamido)prop-1-en-1-yl]phosphoryl)oxy]methyl 2,2-dimethylpropanoate] | – | 2.4 µg/mL | > 100 µg/mL | MIC99 (Mtb; [7]): 37 µg/mL (≈ 70.1 µM) |

From patent publication US11098072B2, “Alkenyl and beta-substituted phosphonates as antimicrobial agents” (The George Washington University, priority 2017, dated 2021)
